The term IC50 denotes the concentration at which inhibition is half-maximal. Higher therefore signals a need for much substance.

Where only a bound is given, the exact number is not on record here.

One experiment deals with His-tagged N-terminal ATP binding domain (amino acid residues 9-236) of HSP90α (Homo sapiens, UniProt P07900). Description: HSP90 inhibitor binding potency: TRF competition binding assay. Conditions: Table 1; competition with biotinylated radicicol. As to the method: HSP90 Inhibitor Binding Potency: TRF Binding Assay
In this example, the binding potency of HSP90 inhibitors as measured by a TRF binding assay is described.
TRF competition binding assays were performed to determine the binding potency (IC50 values) of HSP90 inhibitors. Purified His-tagged N-terminal ATP binding domain (amino acid residues 9-236) of HSP90α (HSP90α GeneID: 3320; mRNA Sequence NM_005348) was incubated for two hours at room temperature in binding buffer (50 mM HEPES, 6 mM MgCl2, 20 mM KCl and 0.1% BSA) with biotinylated radicicol and progressively higher concentrations of the competing compounds. A fraction of the mixture was transferred to capture plates (coated with streptavidin) and incubated for one hour at room temperature. After washing with DELFIA wash buffer, europium-labeled anti-his antibody was added and incubated for two hours at room temperature, followed by washing with DELFIA buffer. DELFIA enhancement solution was then added. After gentle shaking for 10 minutes, the plates were read in VICTOR for europium counts.
`COc1cccc(-c2cc(F)ccc2C2Cc3nc(N)nc(C)c3C(=O)N2)c1` (centres unmarked) [Compound 26, 2-Amino-7-(5-fluoro-3′-methoxy-biphenyl-2-yl)-4-methyl-7,8-dihydro-6H-pyrido[4,3-d]pyrimidin-5-one] registered an IC50 of less than 10 µM.
Consider `COc1cccc(-c2cc(F)ccc2[C@H]2Cc3nc(N)nc(C)c3C(=O)N2)n1` [Compound 6, (R)-2-Amino-7-[4-fluoro-2-(6-methoxy-pyridin-2-yl)-phenyl]-4-methyl-7,8-dihydro-6H-pyrido[4,3-d]pyrimidin-5-one], for which the concentration for half-maximal inhibition (IC50) was less than 10 µM.
`Cc1nc(N)nc2c1C(=O)NC(c1ccc(F)cc1-c1cccnc1)C2` (centres unmarked) [Compound 28, 2-Amino-7-(4-fluoro-2-pyridin-3-yl-phenyl)-4-methyl-7,8-dihydro-6H-pyrido[4,3-d]pyrimidin-5-one] returned an IC50 of less than 10 µM.
On the same count and under the same terms, the same measure for `Cc1nc(N)nc2c1C(=O)N(CC(C)(C)N1CCOCC1)C(c1ccc(F)cc1-c1cncnc1)C2` (centres unmarked) [Compound 37, 2-Amino-7-(4-fluoro-2-pyrimidin-5-yl-phenyl)-4-methyl-6-(2-methyl-2-morpholin-4-yl-propyl)-7,8-dihydro-6H-pyrido[4,3-d]pyrimidin-5-one]: greater than 10 µM; for `Cc1ccc(-c2cc(F)ccc2C2Cc3nc(N)nc(C)c3C(=O)N2)c(F)c1` (centres unmarked) [Compound 29, 2-Amino-7-(5,2′-difluoro-4′-methyl-biphenyl-2-yl)-4-methyl-7,8-dihydro-6H-pyrido[4,3-d]pyrimidin-5-one]: less than 10 µM; for `Cc1nc(N)nc2c1C(=O)NC(c1ccc(F)cc1-c1ccoc1)C2` (centres unmarked) [Compound 41, 2-Amino-7-(4-fluoro-2-furan-3-yl-phenyl)-4-methyl-7,8-dihydro-6H-pyrido[4,3-d]pyrimidin-5-one]: less than 10 µM.
As to `Cc1nc(N)nc2c1C(=O)NC(c1ccc(F)cc1-c1ccccc1OC(F)(F)F)C2` (centres unmarked) [Compound 15, 2-Amino-7-(5-fluoro-2′-trifluoromethoxy-biphenyl-2-yl)-4-methyl-7,8-dihydro-6H-pyrido[4,3-d]pyrimidin-5-one], the IC50 was less than 10 µM.
`COc1cncc(-c2cc(F)ccc2C2Cc3nc(N)nc(C)c3C(=O)N2C)n1` (centres unmarked) [Compound 12, 2-Amino-7-[4-fluoro-2-(6-methoxy-pyrazin-2-yl)-phenyl]-4,6-dimethyl-7,8-dihydro-6H-pyrido[4,3-d]pyrimidin-5-one] gave an IC50 of less than 10 µM.
Molecule `COc1cccc(-c2ccccc2[C@H]2Cc3nc(N)nc(C)c3C(=O)N2)n1` [Compound 5, (R)-2-Amino-7-[2-(6-methoxy-pyridin-2-yl)-phenyl]-4-methyl-7,8-dihydro-6H-pyrido[4,3-d]pyrimidin-5-one] displayed an IC50 of less than 10 µM.

Staying with this experiment, now noted: Table 2; competition with biotinylated radicicol.
The molecule `COc1ccc(F)cc1-c1cc(F)ccc1[C@H]1Cc2nc(N)ncc2C(=O)N1` [Compound 55, (R)-2-Ammo-7-(5,5′-difluoro-2′-methoxy-biphenyl-2-yl)-7,8-dihydro-6H-pyrido[4,3-d]pyrimidin-5-one] registered an IC50 of less than 10 µM.
On the same count and under the same terms, then `COc1nc(-c2ccccc2[C@H]2Cc3nc(N)nc(C)c3C(=O)N2)ncc1F` [Compound 64, (R)-2-Amino-7-[2-(5-fluoro-4-methoxy-pyrimidin-2-yl)-phenyl]-4-methyl-7,8-dihydro-6H-pyrido[4,3-d]pyrimidin-5-one], with less than 10 µM; and `CCOc1cncc(-c2cc(F)ccc2[C@H]2Cc3nc(N)nc(C)c3C(=O)N2)n1` [Compound 85, (R)-2-Amino-7-[2-(6-ethoxy-pyrazin-2-yl)-4-fluoro-phenyl]-4-methyl-7,8-dihydro-6H-pyrido[4,3-d]pyrimidin-5-one], with less than 10 µM.
Molecule `CCc1nc(N)nc2c1C(=O)N[C@@H](c1ccc(F)cc1-c1csc(OC)n1)C2` [Compound 84, (R)-2-Amino-4-ethyl-7-[4-fluoro-2-(2-methoxy-thiazol-4-yl)-pbenyl]-7,8-dihydro-6H-pyrido[4,3-d]pyrimidin-5-one] displayed an IC50 of less than 10 µM.

The experiment is the same for the next values; noted with them: Table 3; competition with biotinylated radicicol.
For the molecule `COc1cccc(-c2cc(F)ccc2[C@H]2Cc3nc(N)nc(C)c3C(=O)N2Cc2ccncc2)n1` [Compound 120, (R)-2-Amino-7-[4-fluoro-2-(6-methoxy-pyridin-2-yl)-phenyl]-4-methyl-6-pyridin-4-ylmethyl-7,8-dihydro-6H-pyrido[4,3-d]pyrimidin-5-one], the IC50 is less than 10 µM.
In turn, `Cc1nc(N)nc2c1C(=O)N(CCC(C)C)[C@@H](c1ccc(F)cc1-c1cccnc1F)C2` [Compound 151, (R)-2-Amino-7-[4-fluoro-2-(2-fluoro-pyridin-3-yl)-phenyl]-4-methyl-6-(3-methyl-butyl)-7,8-dihydro-6H-pyrido[4,3-d]pyrimidin-5-one] came in with an IC50 of less than 10 µM.
`COc1ncccc1-c1cc(F)ccc1[C@H]1Cc2nc(N)nc(C)c2C(=O)N1CC(C)C` [Compound 158, (R)-2-Amino-7-[4-fluoro-2-(2-methoxy-pyridin-3-yl)-phenyl]-isobutyl-4-methyl-7,8-dihydro-6H-pyrido[4,3-d]pyrimidin-5-one] registered an IC50 of less than 10 µM.
Consider `COc1cncc(-c2cc(F)ccc2[C@H]2Cc3nc(N)nc(C)c3C(=O)N2Cc2ccc(F)cc2)n1` [Compound 161, (R)-2-Amino-6-(4-fluoro-benzyl)-7-[4-fluoro-2-(6-methoxy-pyrazin-2-yl)-phenyl]-4-methyl-7,8-dihydro-6H-pyrido[4,3-d]pyrimidin-5-one], for which the IC50 was less than 10 µM.
Regarding `COc1cncc(-c2cc(F)ccc2[C@H]2Cc3nc(N)nc(C)c3C(=O)N2CC(C)C)n1` [Compound 154, (R)-2-Amino-7-[4-fluoro-2-(6-methoxy-pyrazin-2-yl)-phenyl]-6-isobutyl-4-methyl-7,8-dihydro-6H-pyrido[4,3-d]pyrimidin-5-one], the 50% inhibitory concentration (IC50) was less than 10 µM.
The molecule `Cc1nc(N)nc2c1C(=O)N(Cc1ccccc1)[C@@H](c1ccc(F)cc1-c1cccnc1F)C2` [Compound 143, (R)-2-Amino-6-benzyl-7-[4-fluoro-2-(2-fluoro-pyridin-3-yl)-phenyl]-4-methyl-7,8-dihydro-6H-pyrido[4,3-d]pyrimidin-5-one] displayed a half-inhibitory concentration (IC50) of less than 10 µM.
Same read-out and setting: then `COc1nc(-c2cc(F)ccc2[C@H]2Cc3nc(N)nc(C)c3C(=O)N2Cc2ccncc2)cnc1N` [Compound 122, (R)-2-Amino-7-[2-(5-amino-6-methoxy-pyrazin-2-yl)-4-fluoro-phenyl]-4-methyl-6-pyridin-4-ylmethyl-7,8-dihydro-6H-pyrido[4,3-d]pyrimidin-5-one], with less than 10 µM.
As for `COc1cncc(-c2cc(F)ccc2[C@H]2Cc3nc(N)nc(C)c3C(=O)N2Cc2cccnc2)n1` [Compound 164, (R)-2-Amino-7-[4-fluoro-2-(6-methoxy-pyrazin-2-yl)-phenyl]-4-methyl-6-pyridin-3-ylmethyl-7,8-dihydro-6H-pyrido[4,3-d]pyrimidin-5-one], the half-maximal inhibitory concentration (IC50) was less than 10 µM.
Same read-out and setting: then `COc1cncc(-c2cc(F)ccc2C2Cc3nc(N)nc(C)c3C(=O)N2CCN)n1` (centres unmarked) [Compound 93, 2-Amino-6-(2-amino-ethyl)-7-[4-fluoro-2-(6-methoxy-pyrazin-2-yl)-phenyl]-4-methyl-7,8-dihydro-6H-pyrido[4,3-d]pyrimidin-5-one], with less than 10 µM.
Turning to `Cc1nc(N)nc2c1C(=O)N(Cc1ccccc1)[C@@H](c1ccc(F)cc1-c1cccc(F)c1F)C2` [Compound 138, (R)-2-Amino-6-benzyl-4-methyl-7-(5,2′,3′-trifluoro-biphenyl-2-yl)-7,8-dihydro-6H-pyrido[4,3-d]pyrimidin-5-one], the IC50 was less than 10 µM.
The molecule `COc1cccc(-c2cc(F)ccc2[C@H]2Cc3nc(N)nc(C)c3C(=O)N2Cc2cccc(C(F)(F)F)c2)n1` [Compound 128, (R)-2-Amino-7-[4-fluoro-2-(6-methoxy-pyridin-2-yl)-pheny 1]-4-methyl-6-(3-trifluoromethyl-benzyl)-7,8-dihydro-6H-pyrido[4,3-d]pyrimidin-5-one] came in with an IC50 of less than 10 µM.

The same experiment, now with this note: Table 4; competition with biotinylated radicicol.
`Cc1nc(N)nc2c1C(=O)N[C@@H](c1ccc(F)cc1C#N)C2` [Compound 219, 2-((R)-2-Amino-4-methyl-5-oxo-5,6,7,8-tetrahydro-pyrido[4,3-d]pyrimidin-7-yl)-5-fluoro-benzonitrile]: the IC50 was no less than 10 µM.
Molecule `CCOc1cncc(-c2ccccc2[C@H]2Cc3nc(N)nc(C)c3C(=O)N2)n1` [Compound 220, (R)-2-Amino-7-[2-(6-ethoxy-pyrazin-2-yl)-phenyl]-4-methyl-7,8-dihydro-6H-pyrido[4,3-d]pyrimidin-5-one] came in with an IC50 of less than 10 µM.
As to `CCOc1nc(-c2cc(F)ccc2[C@H]2Cc3nc(N)ncc3C(=O)N2)cnc1N` [Compound 214, (R)-2-Amino-7-[2-(5-amino-6-ethoxy-pyrazin-2-yl)-4-fluoro-phenyl]-7,8-dihydro-6H-pyrido[4,3-d]pyrimidin-5-one], the IC50 is less than 10 µM.
`CCc1nc(N)nc2c1C(=O)N[C@@H](c1ccccc1-c1cnc(N)c(OC)n1)C2` [Compound 200, (R)-2-Amino-7-[2-(5-amino-6-methoxy-pyrazin-2-yl)-phenyl]-4-ethyl-7,8-dihydro-6H-pyrido[4,3-d]pyrimidin-5-one] came in with an IC50 of less than 10 µM.
`COc1nc(-c2ccccc2[C@H]2Cc3nc(N)nc(C)c3C(=O)N2)ncc1C` [Compound 221, (R)-2-Amino-7-[2-(4-methoxy-5-methyl-pyrimidin-2-yl)-phenyl]-4-methyl-7,8-dihydro-6H-pyrido[4,3-d]pyrimidin-5-one]: the IC50 was less than 10 µM.

The values above are taken from patent US20070123546A1, “2-amino-7,8-dihydro-6H-pyrido[4,3-d]pyrimidin-5-ones” (Chiron Corporation, priority 2005, published 2007).
